One experiment relates to L929 cell line. The experiment in a line: In vitro cytotoxicity, growth inhibition of L929 cell line. The class given is cell-based. To be noted: 68-72 h. On the procedure: The cytotoxic effect was tested on the growth inhibition of L929 cell line after incubation period of 68-72 h for 6 different concentrations according to relevant, valid DIN and ISO standards. DMEM 10% FCS was used as a negative control and the positive control was 5% DMSO in DMEM 10% FCS

In experiment [1] the test system is Staphylococcus aureus (ATCC 6538). The following applies: Ti-Cylinder, rough surface. The method, then:
Then, the minimum inhibitory concentration (MIC) for Staphylococcus aureus (ATCC 6538) is determined over a serial dilution series according to DIN 58940 (Part 7).

In the next experiment the test system is L929 cells. To be noted: Ti-Cylinder, rough surface, 24 h extract, L929 68 h. On the procedure:
This allows a conclusion on the proliferation of the cells during incubation.

Experiment [2] concerns partially resistant Staphylococcus aureus strains. The following applies: conversion of literature MIC to gentamicin pantothenate per cm^2.
Method: For this purpose, coarse-blasted titanium cylinders were coated by pipetting with different amounts of ethanolic gentamicin-5-pantothenate solution and after drying the coating mass was determined by weighing. The coated titanium tubes were then γ-sterilized.
Approximate values for the upper limit and lower limit of the amount of coating on the test specimens were derived using data already known to cytotoxicity of gentamicin as a pure substance. […] The upper limit of the samples was determined on the basis of model calculations in combination with experimentally specifically determined data of cytotoxicity of gentamicin sulfate.
Experiment [3] shares this test system. To be noted: gentamicin as a pure substance (Alt et al., 2004); cited from earlier work.

Where two headings read alike, the source gives them in different places.

As for `O=C(O)c1ccccc1` [benzoic acid], the “GI (growth inhibition of the cell line L929)” value was found to be 10% in the experiment on L929 cell line (c 0.3 mg/mL, n = 3); 20% with L929 cell line (c 0.6 mg/mL, n = 3); 35% with L929 cell line (c 0.9 mg/mL, n = 3); 50% in the experiment on L929 cell line (c 1.5 mg/mL, n = 3); 64% with L929 cell line (c 2.1 mg/mL, n = 3); 77% in the experiment on L929 cell line (c 3.0 mg/mL, n = 3).

On to `CCCCCCCCCCCCCCCC(=O)O` [palmitic acid], for which the “GI (growth inhibition of the cell line L929)” value in the experiment on L929 cell line (c 0.005 mg/mL, n = 3, solvent 0.5% ethanol) stood at 2%; in the experiment on L929 cell line (c 0.01 mg/mL, n = 3, solvent 0.5% ethanol), 5%; in the experiment with L929 cell line (c 0.02 mg/mL, n = 3, solvent 0.5% ethanol) it was 8%; in the experiment with L929 cell line (c 0.03 mg/mL, n = 3, solvent 0.5% ethanol), 17%; in the experiment on L929 cell line (c 0.04 mg/mL, n = 3, solvent 0.5% ethanol), 22%; with L929 cell line (c 0.05 mg/mL, n = 3, solvent 0.5% ethanol), 30%.

Take `O=C(O)c1ccccc1O` [salicylic acid]: the “GI (growth inhibition of the cell line L929)” value with L929 cell line (c 0.1 mg/mL, n = 3) is 16%; in the experiment with L929 cell line (c 0.3 mg/mL, n = 3), 19%; with L929 cell line (c 0.5 mg/mL, n = 3), 42%; in the experiment on L929 cell line (c 0.8 mg/mL, n = 3) it was 54%; with L929 cell line (c 1.1 mg/mL, n = 3), 67%; in the experiment with L929 cell line (c 1.3 mg/mL, n = 3), 74%.

On to Gentamicin-Penta-Pantothenate, for which the “calculated MIC” value in experiment [1] (20 μg/cm^2) was 50 µg/mL; in experiment [1] (50 μg/cm^2) it was 62.5 µg/mL; in experiment [1] (100 μg/cm^2), 31.25 µg/mL. Also, the entries for the “Growth Inhibition” value in the experiment on L929 cells (700 μg/cm^2), with L929 cells (800 μg/cm^2) and with L929 cells (900 μg/cm^2) were 23%, 18% and 20%, respectively. The “mathematically required minimum dose (lower limit)” value in experiment [2] was determined as 28 μg/cm^2.

For the compound calcium pantothenate [Ca pantothenate], the “GI (growth inhibition of the cell line L929)” value is reported as 0% in the experiment with L929 cell line (c 0.3 mg/mL, n = 3); 0% in the experiment with L929 cell line (c 0.6 mg/mL, n = 3); 4% with L929 cell line (c 1.2 mg/mL, n = 3); 7% with L929 cell line (c 1.8 mg/mL, n = 3); 1% in the experiment with L929 cell line (c 2.4 mg/mL, n = 3); 2% in the experiment with L929 cell line (c 3.0 mg/mL, n = 3).

For gentamicin, the minimum inhibitory concentration in experiment [3] was 64 µg/mL.

For gentamicin sulfate, the “GI (growth inhibition of the cell line L929)” value stood at 4% with L929 cell line (c 0.3 mg/mL, n = 3); 8% in the experiment with L929 cell line (c 0.6 mg/mL, n = 3); 12% in the experiment on L929 cell line (c 1.2 mg/mL, n = 3); 12% with L929 cell line (c 1.8 mg/mL, n = 3); 22% in the experiment with L929 cell line (c 2.4 mg/mL, n = 3); 29% in the experiment on L929 cell line (c 3.0 mg/mL, n = 3).

(Values after US9968573B2, “Endoprosthesis having and active substance coating” (HEMOTEQ AG, priority 2011, dated 2018).)
